{
  "source": "patent US20030055003A1",
  "about": "“Use of copper chelators to inhibit the inactivation of protein C” (priority 2001, published 2003)",
  "key": {"[1]": {"target": "T1, activated protein C (APC) (Homo sapiens, UniProt P04070)", "T1 construct": "purchased Sigma (St. Louis, Mo.) P2200", "T1 sequence (P04070 212-461 limits assumed)": "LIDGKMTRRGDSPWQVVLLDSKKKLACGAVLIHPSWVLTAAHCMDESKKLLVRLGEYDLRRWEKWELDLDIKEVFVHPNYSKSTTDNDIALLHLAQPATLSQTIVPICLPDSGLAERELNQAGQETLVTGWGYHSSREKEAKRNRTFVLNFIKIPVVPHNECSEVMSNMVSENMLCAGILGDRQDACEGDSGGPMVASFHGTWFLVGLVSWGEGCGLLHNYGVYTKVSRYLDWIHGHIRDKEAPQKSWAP", "T1 sequence (P04070 43-197 limits assumed)": "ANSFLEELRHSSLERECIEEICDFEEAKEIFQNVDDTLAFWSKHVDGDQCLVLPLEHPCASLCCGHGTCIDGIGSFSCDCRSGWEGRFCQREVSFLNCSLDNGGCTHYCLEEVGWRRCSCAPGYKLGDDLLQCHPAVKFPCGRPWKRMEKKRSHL", "experiment": "APC activity assay (Accucolor assay, modified for aqueous environment)", "format": "biochemical", "experimental": "Materials. The human albumin N-terminus analogue, d-DAHK, was synthesized by Bowman Research, Ltd (Newport, Wales, U.K.). The assay for APC anticoagulant activity was the Accucolor™ calorimetric assay (Sigma Diagnostics, St. Louis, Mo.). […] Copper content of APC was determined by graphite furnace atomic absorption (Galbraith Laboratories, Knoxville, Tenn.).\nAPC activity assay. The APC assay, originally designed for plasma samples (Francis et al., Am. J. Clin. Pathol. 87, 619-625 (1987)) was modified for use in a clean, aqueous environment. […] Experiments were performed in a 96-well plate. […] Protein C substrate (2 mg/L) was then added to each well and incubated for ten minutes at 37° C. Concentrated acetic acid was added to each well to stop the reaction and the results were read at 410 nm on a microplate fluorescence reader (Model FL600, Bio-Tek Instruments, Inc., Winooski, Vt.)."}, "[2]": {"experiment": "Model of the blood brain barrier", "format": "in vitro ADME", "from_the_text": "In P1, Xaa1 is most preferably Asp, Xaa2 is most preferably Ala, and Xaa3 is most preferably Lys (see above). Thus, the preferred sequences of P1 are Asp Ala His and Asp Ala His Lys [SEQ ID NO: 1]. Most preferably the sequence of P1 is Asp Ala His Lys [SEQ ID NO: 1]. Asp Ala His is the minimum sequence of the N-terminal metal-binding site of human serum albumin necessary for the high-affinity binding of Cu(lI) and Ni(II), and Lys has been reported to contribute to the binding of these metal ions to this site. […] Other preferred sequences for P, include Thr Leu His (the N-terminal sequence of human a-fetoprotein), Arg Thr His (the N-terminal sequence of human sperm protamin HP2) and HMS HMS His (a synthetic peptide reported to form extremely stable complexes with copper; see Mlynarz et al., Speciation 98: Abstracts, Apr. 21, 1998, http://www.jate.uszeged.hu/spec98/abstr/mlynar.html)."}},
  "note": "“And” between values parts separate entries of the source, which are not always exact repeats. Identical values can stand only once. Where a SMILES comes first, the peptide text is derived from it.",
  "data": [
    {"compound": "[Cl][Cu][Cl]", "note": "[CuCl2, reference compound]", "values": [
      {"measurement": "overall mean decrease in APC activity compared to baseline", "setting": "[1]; 10 μM CuCl2, mean of two separate experiments", "value": "26.0%±11.8"},
      {"measurement": "decrease in APC activity compared to baseline", "setting": "[1]; 10 μM CuCl2 with APC 2 mg/L, 30 min 37° C., single experiment, mean±SD, n=3", "value": "27.9%±15.5 and 24.1%±9.7"}
    ]},
    {"compound": "D-Asp D-Ala D-His D-Lys [d-DAHK]", "values": [
      {"measurement": "increase over baseline APC activity, chelator alone", "setting": "[1]; 40 μM chelator with APC 2 mg/L, no added copper, 30 min 37° C., mean±SD", "value": "18.2%±13.0"},
      {"measurement": "protection of copper-induced inhibition of APC, lower d-DAHK:CuCl2 ratios", "setting": "[1]; d-DAHK:CuCl2 ratios below 2:1 (1:4, 1:2, 1:1)", "value": "no significant protection"},
      {"measurement": "increase of APC activity over baseline, d-DAHK:CuCl2 2:1", "setting": "[1]; ratio 2:1 d-DAHK:CuCl2, 30 min 37° C.", "value": "12.9%±1.1"},
      {"measurement": "increase of APC activity over baseline, d-DAHK:CuCl2 4:1", "setting": "[1]; ratio 4:1 d-DAHK:CuCl2, 30 min 37° C.", "value": "14.8%±12.7"}
    ]},
    {"compound": "C[C@H](NC(=O)[C@@H](N)CC(=O)O)C(=O)N[C@@H](Cc1c[nH]cn1)C(=O)N[C@@H](CCCCN)C(=O)O", "note": "[Asp Ala His Lys] (H-DAHK-OH; N-terminus and C-terminus assumed)", "values": [
      {"measurement": "passage through a model of the blood brain barrier", "setting": "[2]", "value": "pass through a model of the blood brain barrier"}
    ]}
  ]
}
